Results as given in article PMC12448638, “The association between diet estrogenicity in exotic felids and poor spermatozoa quality in tigers (Panthera tigris)” (Biology of Reproduction, 2025).
Where two headings read alike, the source gives them in different places.

What was measured:
Experiment in all cases: 3xERE luciferase reporter activation, HEK293
[1] = molecular target: T1, ST ERα (Panthera tigris, UniProt Z9XQL7S1Y6); format: cell-based
T1 construct: full-length ESR1 ORF (1788 bp, about 595 aa), codon-optimised, pcDNA3.1+, HEK293; residues S53, P76, T496, S585
T1 sequence (Z9XQL7S1Y6 1-595): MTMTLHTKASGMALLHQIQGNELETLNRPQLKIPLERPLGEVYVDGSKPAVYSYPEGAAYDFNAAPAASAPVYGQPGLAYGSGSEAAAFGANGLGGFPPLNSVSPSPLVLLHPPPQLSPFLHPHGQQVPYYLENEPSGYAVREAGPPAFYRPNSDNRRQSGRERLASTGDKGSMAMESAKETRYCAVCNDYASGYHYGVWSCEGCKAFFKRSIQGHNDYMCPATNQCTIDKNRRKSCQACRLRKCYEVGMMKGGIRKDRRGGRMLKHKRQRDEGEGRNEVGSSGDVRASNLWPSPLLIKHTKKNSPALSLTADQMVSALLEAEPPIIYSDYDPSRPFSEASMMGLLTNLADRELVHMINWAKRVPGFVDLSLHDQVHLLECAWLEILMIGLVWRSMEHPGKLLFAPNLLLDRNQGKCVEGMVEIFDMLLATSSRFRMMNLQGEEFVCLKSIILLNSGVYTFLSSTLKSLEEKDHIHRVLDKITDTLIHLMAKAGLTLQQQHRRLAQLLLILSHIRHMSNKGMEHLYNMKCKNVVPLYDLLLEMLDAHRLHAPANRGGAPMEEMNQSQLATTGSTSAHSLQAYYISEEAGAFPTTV

[2] = test system: T2, SL ERα; format: cell-based, Panthera uncia; conditions: agonist, 24 h, 37 °C, corrected for constitutive activity
T2 construct: gene ESR1; full-length ESR1 ORF (1788 bp, about 595 aa), codon-optimised, pcDNA3.1+, HEK293; residues S53, S76, T496, T585

[3] = molecular target: T3, SL ERβ (Panthera uncia, UniProt Z9GFH5XYU7); format: cell-based; conditions: agonist; 24 h, 37 °C; normalised to β-gal and maximal E2 activation; read-out: SL ER⍺ / EC50
T3 construct: full-length ESR2 ORF (1653 bp, about 550 aa), not codon-optimised, pcDNA3.1+, HEK293; residues S31, S40, I138, A147, G361, R433, Q550

[4] = test system: T4, ST ERβ; format: cell-based, Panthera tigris sumatrae; conditions: agonist, 24 h, 37 °C
T4 construct: gene ESR2; full-length ESR2 ORF (1653 bp, about 550 aa), codon-optimised, pcDNA3.1+, HEK293; residues S31, S40, V138, A147, E361, R433, E550

[5] = normalised to β-gal and maximal E2 activation, read-out: SL ER⍺ / EC50
[6] = normalised to β-gal and maximal E2 activation, read-out: ST ER⍺ / EC50
[7] = normalised to β-gal, read-out: EC50

SMILES | EC50 ([1]; read-out: ST ER⍺ / EC50) [nM] | EC50 [2, 5] [nM] | EC50 [3] [nM] | EC50 [4, 6] [nM] | EC50 ([1]; read-out: EC50) [nM] | EC50 [2, 7] [nM] | EC50 [4, 7] [nM]
O=c1oc2cc(O)ccc2c2oc3cc(O)ccc3c12 [COUM, coumestrol] | 131 | 41.3 | 26 | 8.17 |  |  | 
O=c1c(-c2ccc(O)cc2)coc2cc(O)ccc12 [DAID, daidzein] |  |  |  | 793 |  |  | 
C[C@]12CC[C@@H]3c4ccc(O)cc4CC[C@H]3[C@@H]1CC[C@@H]2O [E2, 17β-estradiol] |  |  |  |  | 0.00611 | 0.00969 | 0.041
O=c1c(-c2ccc(O)cc2)coc2cc(O)cc(O)c12 [GEN, genistein] | 1890 | 1670 | 291 | 22.3 |  |  | 
